Test results published in patent US10167257B2, “Indole derivatives for use in medicine” (IOmet Pharma Ltd., priority 2014, dated 2019).

Experiments:
TDO (A172 cells) = molecular target: T1, TDO (A172 cells) (Homo sapiens, UniProt P48775); assay: TDO cell-based assay (A172), kynurenine production; details: A172 human glioblastoma cells, 500 μM L-Trp, 48 h, kynurenine by absorbance at 490 nm
T1 construct: This assay utilised cancer cells which expressed either TDO or IDO; host or cells: A172 human glioblastoma cells
Summary of the method: (§1)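 SKOV-3 cells (IDO, induced with 500 ng/ml IFNγ) or A172 glioblastoma cells (TDO) were incubated with compound and 500 μM L-Trp for 48 h at 37 °C in phenol-red-free RPMI with dialysed serum. Supernatant kynurenine was measured with 1% Ehrlich's reagent as absorbance at 490 nm.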

IDO (SKOV-3 cells) = molecular target: T2, IDO (SKOV-3 cells) (Homo sapiens, UniProt P14902); assay: IDO cell-based assay (SKOV-3, IFNγ-induced), kynurenine production; details: SKOV-3 ovary adenocarcinoma cells, IFNγ 500 ng/ml, 500 μM L-Trp, 48 h, kynurenine by absorbance at 490 nm
T2 construct: This assay utilised cancer cells which expressed either TDO or IDO; host or cells: SKOV-3 ovary adenocarcinoma cells, IFNγ-induced
Summary of the method: as §1

T1 sequence (P48775 whole entry): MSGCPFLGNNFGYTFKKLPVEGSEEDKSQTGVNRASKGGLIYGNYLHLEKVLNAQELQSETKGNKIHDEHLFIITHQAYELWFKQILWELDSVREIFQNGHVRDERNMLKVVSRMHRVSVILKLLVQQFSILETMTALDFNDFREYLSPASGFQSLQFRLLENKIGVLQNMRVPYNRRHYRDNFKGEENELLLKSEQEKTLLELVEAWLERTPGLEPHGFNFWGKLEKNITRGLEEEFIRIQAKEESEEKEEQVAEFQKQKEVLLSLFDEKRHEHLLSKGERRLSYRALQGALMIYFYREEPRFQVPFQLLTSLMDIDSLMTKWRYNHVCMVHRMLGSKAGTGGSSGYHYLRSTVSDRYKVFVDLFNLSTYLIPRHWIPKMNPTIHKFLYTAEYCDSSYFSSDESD
T2 sequence (P14902 whole entry): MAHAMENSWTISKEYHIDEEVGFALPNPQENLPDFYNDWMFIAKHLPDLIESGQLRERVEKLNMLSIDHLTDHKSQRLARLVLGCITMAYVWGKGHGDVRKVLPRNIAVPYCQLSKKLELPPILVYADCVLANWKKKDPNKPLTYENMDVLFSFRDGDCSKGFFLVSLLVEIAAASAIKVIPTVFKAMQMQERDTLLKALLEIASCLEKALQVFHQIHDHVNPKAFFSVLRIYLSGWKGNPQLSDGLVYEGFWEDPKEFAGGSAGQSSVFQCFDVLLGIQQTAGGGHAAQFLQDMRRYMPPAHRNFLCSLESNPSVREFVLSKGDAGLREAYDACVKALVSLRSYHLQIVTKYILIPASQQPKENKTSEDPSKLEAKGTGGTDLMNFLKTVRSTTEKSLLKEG

Row | TDO cellular assay (A172) pIC50 (TDO (A172 cells)) | IDO cellular assay (SKOV3) pIC50 (IDO (SKOV-3 cells)) | SMILES
1 | − (− = pIC50 <4.50) | +++ (+++ = pIC50 ≥5.50) | COc1ccc(C(NC(=O)c2cc3ccccc3[nH]2)C2CC2)cc1 (centres unmarked) [Compound 18]
2 | − (− = pIC50 <4.50) | ++ (++ = pIC50 5.00-<5.50) | COCCn1cc(C(C)NC(=O)c2cc3cc(Cl)ccc3[nH]2)cn1 (centres unmarked) [Compound 195]
3 | − (− = pIC50 <4.50) | + (+ = pIC50 4.50-<5.00) | O=C(NCc1ccc(F)c(Cl)c1)c1cc2cc(Cl)ccc2[nH]1 [Compound 35]
4 | + (+ = pIC50 4.50-<5.00) | +++ (+++ = pIC50 ≥5.50) | O=C(NC1(c2ccccc2)CC1)c1cc2cc(Cl)ccc2[nH]1 [Compound 128]
5 | + (+ = pIC50 4.50-<5.00) | + (+ = pIC50 4.50-<5.00) | O=C(NCc1cc2cc(F)ccc2[nH]1)c1ccccc1 [Compound 52]
6 | − (− = pIC50 <4.50) | + (+ = pIC50 4.50-<5.00) | CC(NC(=O)c1cc2cc(Cl)ccc2[nH]1)c1ccc(C(=O)N2CCN(C)CC2)cc1 (centres unmarked) [Compound 91]
7 | − (− = pIC50 <4.50) | ++ (++ = pIC50 5.00-<5.50) | CC(NC(=O)c1cc2cccnc2[nH]1)c1ccccc1 (centres unmarked) [Compound 80]
8 | + (+ = pIC50 4.50-<5.00) | +++ (+++ = pIC50 ≥5.50) | O=C(NC1(c2ccccc2)COC1)c1cc2cc(Cl)ccc2[nH]1 [Compound 142]
9 | − (− = pIC50 <4.50) | +++ (+++ = pIC50 ≥5.50) | O=C(NC1(c2ccccc2)CCCC1)c1cc2cc(Cl)ccc2[nH]1 [Compound 230]
10 | + (+ = pIC50 4.50-<5.00) | +++ (+++ = pIC50 ≥5.50) | CC(NC(=O)c1cc2ccccc2[nH]1)c1ccccc1 (centres unmarked) [Compound 17]
11 | − (− = pIC50 <4.50) | + (+ = pIC50 4.50-<5.00) | Cc1noc(C(C)NC(=O)c2cc3cc(C#N)ccc3[nH]2)n1 (centres unmarked) [Compound 221]
12 | − (− = pIC50 <4.50) | +++ (+++ = pIC50 ≥5.50) | C[C@@H](NC(=O)c1cc2cc(Cl)ccc2[nH]1)c1ccc(Cl)cc1 [Compound 72]
13 | − (− = pIC50 <4.50) | + (+ = pIC50 4.50-<5.00) | Cn1cc(C2(NC(=O)c3cc4ccc(O)cc4[nH]3)CC2)cn1 [Compound 196]
14 | − (− = pIC50 <4.50) | + (+ = pIC50 4.50-<5.00) | C[C@@H](NC(=O)c1nc2ccccc2o1)c1ccccc1 [Compound 73]
15 | − (− = pIC50 <4.50) | + (+ = pIC50 4.50-<5.00) | C[C@H](NC(=O)c1nc2ccccc2o1)c1ccccc1 [Compound 76]
16 | − (− = pIC50 <4.50) | + (+ = pIC50 4.50-<5.00) | CNC(=O)c1ccc2[nH]c(C(=O)NC(C)c3ccccc3)cc2c1 (centres unmarked) [Compound 106]
17 | − (− = pIC50 <4.50) | ++ (++ = pIC50 5.00-<5.50) | CC(NC(=O)c1cc2cc(Cl)ccc2[nH]1)C1CCN(S(C)(=O)=O)CC1 (centres unmarked) [Compound 111]
18 | − (− = pIC50 <4.50) | +++ (+++ = pIC50 ≥5.50) | O=C(NCc1ccc(Cl)cc1)c1cc2cc(Cl)ccc2[nH]1 [Compound 34]
19 | − (− = pIC50 <4.50) | +++ (+++ = pIC50 ≥5.50) | Cc1cc(C2(NC(=O)c3cc4cc(C#N)ccc4[nH]3)CC2)no1 [Compound 219]
20 | − (− = pIC50 <4.50) | + (+ = pIC50 4.50-<5.00) | Cc1nc(C(C)NC(=O)c2cc3cc(C#N)ccc3[nH]2)no1 (centres unmarked) [Compound 216]
21 | − (− = pIC50 <4.50) | +++ (+++ = pIC50 ≥5.50) | Cn1cc(C2(NC(=O)c3cc4cc(C#N)ccc4[nH]3)COC2)cn1 [Compound 236]
22 | − (− = pIC50 <4.50) | ++ (++ = pIC50 5.00-<5.50) | O=C(NC1(c2ccccc2)CC1)c1cc2ccc(C(F)F)cc2[nH]1 [Compound 189]
23 | − (− = pIC50 <4.50) | ++ (++ = pIC50 5.00-<5.50) | CC(CCNS(C)(=O)=O)NC(=O)c1cc2cc(Cl)ccc2[nH]1 (centres unmarked) [Compound 122]
24 | − (− = pIC50 <4.50) | + (+ = pIC50 4.50-<5.00) | CC(NC(=O)c1cc2cc(Cl)cnc2[nH]1)c1cnn(C)c1 (centres unmarked) [Compound 165]
25 | − (− = pIC50 <4.50) | ++ (++ = pIC50 5.00-<5.50) | O=C(NCC1CCCN(C(=O)C2CC2)C1)c1cc2cc(Cl)ccc2[nH]1 (centres unmarked) [Compound 108]

Row | TDO cellular assay (A172) pIC50 (TDO (A172 cells)) | IDO cellular assay (SKOV3) pIC50 (IDO (SKOV-3 cells)) | SMILES
26 | − (− = pIC50 <4.50) | +++ (+++ = pIC50 ≥5.50) | O=C(NC1(c2ccc(F)cc2)CC1)c1cc2cc(Cl)ccc2[nH]1 [Compound 138]
27 | − (− = pIC50 <4.50) | ++ (++ = pIC50 5.00-<5.50) | COc1ccc2cc(C(=O)N[C@H](C)c3ccccc3)[nH]c2c1 [Compound 159]
28 | − (− = pIC50 <4.50) | +++ (+++ = pIC50 ≥5.50) | Cn1cc(C2(NC(=O)c3cc4c(F)c(Cl)ccc4[nH]3)CC2)cn1 [Compound 191]
29 | ++ (++ = pIC50 5.00-<5.50) | ++ (++ = pIC50 5.00-<5.50) | C[C@@H](NC(=O)c1cc2ccc(Cl)cc2[nH]1)c1ccccc1 [Compound 47]
30 | − (− = pIC50 <4.50) | +++ (+++ = pIC50 ≥5.50) | CC(C)C(NC(=O)c1cc2cc(Cl)ccc2[nH]1)c1cnn(C)c1 (centres unmarked) [Compound 259]
31 | − (− = pIC50 <4.50) | +++ (+++ = pIC50 ≥5.50) | Cn1cc(C2(NC(=O)c3cc4cc(Cl)ccc4[nH]3)COC2)cn1 [Compound 213]
32 | − (− = pIC50 <4.50) | + (+ = pIC50 4.50-<5.00) | CC(NC(=O)c1cc2cc(OCc3ccccc3)ccc2[nH]1)c1cnn(C)c1 (centres unmarked) [Compound 239]
33 | − (− = pIC50 <4.50) | +++ (+++ = pIC50 ≥5.50) | CCOc1ccc2[nH]c(C(=O)NC3(c4cnn(C)c4)CC3)cc2c1 [Compound 273]
34 | − (− = pIC50 <4.50) | + (+ = pIC50 4.50-<5.00) | CC1(NC(=O)c2cc3cc(Cl)ccc3[nH]2)CC1 [Compound 139]
35 | − (− = pIC50 <4.50) | + (+ = pIC50 4.50-<5.00) | CS(=O)(=O)Nc1ccc2cc(C(=O)NC3(c4ccccc4)CC3)[nH]c2c1 [Compound 190]
36 | − (− = pIC50 <4.50) | +++ (+++ = pIC50 ≥5.50) | CC(NC(=O)c1cc2ccccc2[nH]1)c1ccc(C(F)(F)F)cc1 (centres unmarked) [Compound 19]
37 | ++ (++ = pIC50 5.00-<5.50) | +++ (+++ = pIC50 ≥5.50) | C[C@@H](NC(=O)c1cc2cc(F)ccc2[nH]1)c1ccccc1 [Compound 43]
38 | ++ (++ = pIC50 5.00-<5.50) | +++ (+++ = pIC50 ≥5.50) | O=C(NC1(c2ccccc2)COC1)c1cc2cc(Cl)cc(F)c2[nH]1 [Compound 227]
39 | − (− = pIC50 <4.50) | + (+ = pIC50 4.50-<5.00) | O=C(NCc1cccs1)c1cc2ccccc2[nH]1 [Compound 13]
40 | − (− = pIC50 <4.50) | +++ (+++ = pIC50 ≥5.50) | CCC(NC(=O)c1cc2cc(Cl)ccc2[nH]1)c1cnn(C)c1 (centres unmarked) [Compound 258]
41 | + (+ = pIC50 4.50-<5.00) | − (− = pIC50 <4.50) | C[C@H](NC(=O)c1cc2c([nH]1)CCCC2)c1ccccc1 [Compound 55]
42 | + (+ = pIC50 4.50-<5.00) | +++ (+++ = pIC50 ≥5.50) | COCCN(C)C(=O)c1ccc(C(C)NC(=O)c2cc3cc(Cl)ccc3[nH]2)cc1 (centres unmarked) [Compound 93]
43 | − (− = pIC50 <4.50) | +++ (+++ = pIC50 ≥5.50) | CCc1ccc2[nH]c(C(=O)NC3(c4ccccc4)CC3)cc2c1 [Compound 242]
44 | + (+ = pIC50 4.50-<5.00) | +++ (+++ = pIC50 ≥5.50) | CC(C)C(NC(=O)c1cc2cc(Cl)ccc2[nH]1)c1ccccc1 (centres unmarked) [Compound 101]
45 | − (− = pIC50 <4.50) | + (+ = pIC50 4.50-<5.00) | COCCn1cc(C(C)NC(=O)c2cc3cc(C#N)ccc3[nH]2)cn1 (centres unmarked) [Compound 197]
46 | − (− = pIC50 <4.50) | ++ (++ = pIC50 5.00-<5.50) | Cc1ccc2[nH]c(C(=O)NCc3ccc(F)cc3)cc2c1 [Compound 27]
47 | − (− = pIC50 <4.50) | +++ (+++ = pIC50 ≥5.50) | CC(NC(=O)c1cc2cc(Cl)ccc2[nH]1)c1cnn(-c2ccccc2)c1 (centres unmarked) [Compound 124]
48 | + (+ = pIC50 4.50-<5.00) | +++ (+++ = pIC50 ≥5.50) | CC(NC(=O)c1cc2cc(OC(F)(F)F)ccc2[nH]1)c1cnn(C)c1 (centres unmarked) [Compound 249]
49 | − (− = pIC50 <4.50) | +++ (+++ = pIC50 ≥5.50) | CC(NC(=O)c1cc2cc(Cl)cc(F)c2[nH]1)c1cnn(C)c1 (centres unmarked) [Compound 202]
